For data set [1], the target named is T1, human TrkA (Homo sapiens, UniProt P04629).
T1 construct: purchased Lifetechnologies PV3144
Description: Test Example 2: Human TrkA Inhibition Assay. Format: biochemical. Particulars: Test Example 2. A digest of the protocol:
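Mobility-shift kinase assay: 90 min reaction at room temperature, stopped with EDTA buffer; phosphorylated and non-phosphorylated fluorescent substrate measured, conversion ratio calculated. Inhibition % normalised between DMSO-only wells and no-TrkA wells.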

In data set [2] the target is T1, human TrkA. Description: Test Example 2-2: Human TrkA Inhibition Assay. Format: biochemical. A digest of the protocol:
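Kinase (1 nmol/L) pre-incubated 15 min at room temperature with compound, then FL-peptide 27 (1.5 μmol/L) and ATP ([…]) added for 120 min at 37 °C; EDTA stop. Phosphorylated and unphosphorylated substrate separated by mobility-shift readout; IC50 by logistic regression over 10 concentrations.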

The nature of data set [3]: Test Example 9-2: Metabolism Stability Test. It counts as in vitro ADME. The following applies: human liver microsomes 0.5 mg protein/mL, 30 minutes, 37° C., 1 mmol/L NADPH. The procedure: (§1) Using commercially available pooled human hepatic microsomes, a compound of the present invention was reacted for a constant time, and a remaining rate was calculated by comparing a reacted sample and an unreacted sample, thereby, a degree of metabolism in liver was assessed.
(§2) A reaction was performed (oxidative reaction) at 37° C. for 0 minute or 30 minutes in the presence of 1 mmol/L NADPH in 0.2 mL of a buffer (50 mmol/L Tris-HCl pH 7.4, 150 mmol/L potassium chloride, 10 mmol/L magnesium chloride) containing 0.5 mg protein/mL of human liver microsomes. After the reaction, 50 μL of the reaction solution was added to 100 μL of a methanol/acetonitrile=1/1 (v/v), mixed and centrifuged at 3000 rpm for 15 minutes. The compound of the present invention in the supernatant was quantified by LC/MS/MS or Solid Phase Extraction (SPE)/MS, and a remaining amount of the compound of the present invention after the reaction was calculated, letting a compound amount at 0 minute reaction time to be 100%.

The nature of data set [4]: Test Example 9: Metabolism Stability Test. It counts as in vitro ADME. The following applies: human liver microsomes 0.5 mg protein/mL, 30 minutes, 37° C., 1 mmol/L NADPH. On the procedure: as §1
as §2, with “LC/MS/MS,” for “LC/MS/MS or Solid Phase Extraction (SPE)/MS,”
A general note: Liver microsomes are vesicles of endoplasmic reticulum, rich in cytochrome P450 enzymes.

Data set [5] deals with T2, human ether-a-go-go related gene (hERG) channel (Homo sapiens, UniProt Q12809).
T2 construct: expressed in transfected cells; host or cells: CHO cells
T2 sequence (Q12809 whole entry): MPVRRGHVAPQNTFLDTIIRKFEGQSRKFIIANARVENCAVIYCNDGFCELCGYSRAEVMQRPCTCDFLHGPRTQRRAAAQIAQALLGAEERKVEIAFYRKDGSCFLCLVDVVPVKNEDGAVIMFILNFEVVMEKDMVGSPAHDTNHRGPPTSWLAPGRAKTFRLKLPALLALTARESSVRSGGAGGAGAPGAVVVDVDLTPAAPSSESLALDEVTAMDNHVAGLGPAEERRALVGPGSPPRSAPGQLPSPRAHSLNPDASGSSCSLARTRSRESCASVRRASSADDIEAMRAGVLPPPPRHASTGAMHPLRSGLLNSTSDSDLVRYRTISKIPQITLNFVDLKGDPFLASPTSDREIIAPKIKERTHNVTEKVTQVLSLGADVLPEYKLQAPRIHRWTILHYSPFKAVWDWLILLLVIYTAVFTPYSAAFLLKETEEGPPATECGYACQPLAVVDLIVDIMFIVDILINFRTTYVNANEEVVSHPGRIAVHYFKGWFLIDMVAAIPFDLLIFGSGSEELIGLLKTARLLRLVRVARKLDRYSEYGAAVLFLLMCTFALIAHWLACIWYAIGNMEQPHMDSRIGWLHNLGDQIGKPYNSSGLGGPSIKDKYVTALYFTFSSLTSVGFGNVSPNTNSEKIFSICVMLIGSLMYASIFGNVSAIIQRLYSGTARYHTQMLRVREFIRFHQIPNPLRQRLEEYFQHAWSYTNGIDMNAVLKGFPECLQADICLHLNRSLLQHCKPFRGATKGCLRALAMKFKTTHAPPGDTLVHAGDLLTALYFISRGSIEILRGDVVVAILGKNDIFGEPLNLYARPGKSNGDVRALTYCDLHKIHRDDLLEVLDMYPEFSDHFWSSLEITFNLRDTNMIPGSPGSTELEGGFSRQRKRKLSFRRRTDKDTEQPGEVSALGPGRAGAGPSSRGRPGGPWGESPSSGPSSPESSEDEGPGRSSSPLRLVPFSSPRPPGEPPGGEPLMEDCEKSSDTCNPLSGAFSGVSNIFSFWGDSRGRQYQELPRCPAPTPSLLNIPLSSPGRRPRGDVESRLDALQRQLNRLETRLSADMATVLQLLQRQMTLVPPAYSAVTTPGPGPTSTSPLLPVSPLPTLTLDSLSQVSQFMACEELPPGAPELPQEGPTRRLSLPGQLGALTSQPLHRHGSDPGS
Kind of data set: Test Example 3: hERG Test (whole cell patch clamp, IKr). It counts as cell-based. The following applies: CHO cells expressing hERG. An excerpt:
For the purpose of assessing risk of an electrocardiogram QT interval prolongation of the compound of the present invention, effects of the compound of the present invention on delayed rectifier K current (I r), which plays an important role in the ventricular repolarization process, was studied using CHO cells expressing human ether-a-go-go related gene (hERG) channel.
After a cell was retained at a membrane potential of −80 mV by whole cell patch clamp method using an automated patch clamp system (QPatch; Sophion Bioscience A/S), IKr induced by leak potential at −50 mV, and then depolarization pulse stimulation at +20 mV for 2 seconds and, further, repolarization pulse stimulation at −50 mV for 2 seconds, was recorded. After the generated current was stabilized, extracellular solution (NaCl: 145 mmol/L, KCl: 4 mmol/L, CaCl2: 2 mmol/L, MgCl2: 1 mmol/L, glucose: 10 mmol/L, HEPES (4-(2-hydroxyethyl)-1-piperazineethanesulfonic acid): 10 mmol/L, pH7.4), in which the compound of the present invention had been dissolved at an objective concentration, was applied to the cell at room temperature for 10 minutes. From the recording IKr, an absolute value of the tail peak current was measured based on the current value at the resting membrane potential using analysis software (Falster Patch; Sophion Bioscience A/S). Further, the % inhibition relative to the tail peak current before application of the compound of the present invention was calculated, and compared with the vehicle-applied group (0.1% dimethyl sulfoxide solution) to assess influence of the compound of the present invention on IKr.

Setting [6] is: human TrkA 2.5 nmol/L, ATP 500 μmol/L, 90 min at room temperature, read-out: TrkA inhibitory activity IC50.
Setting [7] is: human TrkA 1 nmol/L, 120 min at 37° C., read-out: TrkA inhibition IC50.
The mark [8] stands for this setting: human TrkA inhibition, class symbols A/B/C, read-out: IC50_nM.

Some results are limits rather than exact numbers.

T1 sequence (P04629 33-796): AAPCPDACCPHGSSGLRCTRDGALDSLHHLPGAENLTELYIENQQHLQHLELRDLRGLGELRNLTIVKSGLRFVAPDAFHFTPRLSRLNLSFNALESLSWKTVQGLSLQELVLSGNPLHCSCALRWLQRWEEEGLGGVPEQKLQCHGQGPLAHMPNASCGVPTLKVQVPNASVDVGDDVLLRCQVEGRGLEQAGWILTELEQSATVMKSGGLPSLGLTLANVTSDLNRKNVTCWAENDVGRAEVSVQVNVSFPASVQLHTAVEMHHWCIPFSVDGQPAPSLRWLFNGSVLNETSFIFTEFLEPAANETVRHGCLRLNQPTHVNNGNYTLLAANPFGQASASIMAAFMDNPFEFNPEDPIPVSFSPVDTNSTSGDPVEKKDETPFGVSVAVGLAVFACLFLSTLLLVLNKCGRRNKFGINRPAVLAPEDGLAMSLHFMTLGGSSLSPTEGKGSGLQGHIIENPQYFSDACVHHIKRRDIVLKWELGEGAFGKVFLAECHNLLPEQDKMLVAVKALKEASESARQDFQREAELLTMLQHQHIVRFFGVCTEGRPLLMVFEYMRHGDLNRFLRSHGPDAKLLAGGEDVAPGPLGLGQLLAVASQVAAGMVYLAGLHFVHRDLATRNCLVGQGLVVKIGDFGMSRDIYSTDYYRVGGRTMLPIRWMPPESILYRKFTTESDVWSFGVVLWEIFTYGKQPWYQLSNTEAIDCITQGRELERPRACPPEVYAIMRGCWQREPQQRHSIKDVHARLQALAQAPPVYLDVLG

With `COCCN1C[C@@H](NC(=O)Nc2c(C)c(-c3cnn(C)c3)nn2-c2ccccc2)[C@H](c2cccc(O)c2)C1` (racemic) [Compound I-96], the results for the IC50 on human TrkA [1] (setting [6]) and on human TrkA [2] (setting [7]) were 29 nM and 160 nM, respectively. In addition, in data set [3], the “remaining amount of compound after reaction” value (from here on “remaining amount of compound”) came to 90%.
For the compound `COCCN1C[C@@H](NC(=O)Nc2c(C)c(-c3cnn(C)c3)nn2-c2ccccc2)[C@H](c2ccnc(C#N)c2)C1` (racemic) [Compound I-180], the IC50 on human TrkA [2] (setting [8]) is 100 to 1000 nM. The “remaining amount of compound” value in data set [4] was 90%.
For `COCCN1C[C@@H](NC(=O)Nc2c(C)c(-c3cnn(C)c3)nn2-c2ccccc2)[C@H](c2ccc3c(c2)NC(=O)CO3)C1` (racemic) [Compound I-136], the IC50 on human TrkA [1] (setting [8]) lay in the range of 100 to 1000 nM. Besides, the “remaining amount of compound” value in data set [3] was found to be 104%.
For the compound `COCC[N+]1([O-])C[C@@H](NC(=O)Nc2c(C)c(-c3cnn(C)c3)nn2-c2ccccc2)[C@H](c2ccc(F)c(F)c2)C1` (some centres unmarked) [Compound I-3], the results for the IC50 on human TrkA [1] (setting [6]) and at human TrkA [2] (setting [7]) were 65 nM and 50 nM, respectively. Moreover, in data set [5], the “% inhibition of IKr (hERG tail peak current)” value was 20.4%.
For the compound `COCCN1C[C@@H](NC(=O)Nc2c(C)c(-c3cnn(C)c3)nn2-c2ccccc2)[C@H](c2ccc3ncsc3c2)C1` (racemic) [Compound I-107], the IC50 at human TrkA [1] (setting [8]) was below 100 nM. In addition, the “remaining amount of compound” value in data set [3] is on record as 92%.
In the case of `COCC[C@@H]1C[C@@H](NC(=O)Nc2c(C)c(-c3cnn(C)c3)nn2-c2ccccc2)[C@H](c2ccnc(F)c2)C1` [Compound I-262], the IC50 on human TrkA [2] (setting [7]) was 4.8 nM. Besides, the “% inhibition of IKr (hERG tail peak current)” value in data set [5] is on record as 20.1%.

Source of the values: patent US10532985B2, “Heterocycle and carbocycle derivatives having TRKA inhibitory activity” (Shionogi & Co., Ltd., priority 2014, dated 2020).
